# Source: patent publication US7731856B2, “Method and system for treating waste matter from animals, urea-rich and urea-lean waste-matter products, and uses thereof” (Waste 2 Green, LLC, priority 2003, dated 2010)
# Where two headings read alike, the source gives them in different places.
# How the values were obtained:
# [1] = target: urease (Canavalia ensiformis, UniProt P07374)
# Experimental: This can simply be studied by addition of 30 ml of methanal to the urease-contaminated and Cu^2+-contaminated reference system.
# This is simple studied by addition of 30 ml methanal to the reference system contaminated with urease, Ag^+- or Pb^2+-ions.
# [2] = test system: urease activity from natural animal faeces; experiment: stable experiment: collected liquid manure and faeces with inhibitor, hyperfiltration, polymerisation with methanal; set-up: species or system pigs; details: for polymerisation of concentrated livestock-produced urea with methanal: 50 ml of hyperfiltration concentrate plus 30 ml methanal
# Experimental: Below a stable floor supporting 20 pigs to be slaughtered a large plastic foil covering the underlying floor having the shape of an inverted pyramid was placed. […] The liquid manure and faeces of the animals were collected on this foil for the next 24 hours. From this foil 20 l sample was collected (and separated) and treated in a hyperfiltration system of the type ROMEDI-250 supplied by UNION-filtration a/s, Nakskov, Denmark. The separation process was continued until a total of 15 l permeate liquid—water was withdrawn. The urea-lean fraction was disposed.
# [3] = target: urease EC 3.5.1.5 (Canavalia ensiformis, UniProt P07374)
# urease EC 3.5.1.5, sequence (P07374 whole entry, looked up): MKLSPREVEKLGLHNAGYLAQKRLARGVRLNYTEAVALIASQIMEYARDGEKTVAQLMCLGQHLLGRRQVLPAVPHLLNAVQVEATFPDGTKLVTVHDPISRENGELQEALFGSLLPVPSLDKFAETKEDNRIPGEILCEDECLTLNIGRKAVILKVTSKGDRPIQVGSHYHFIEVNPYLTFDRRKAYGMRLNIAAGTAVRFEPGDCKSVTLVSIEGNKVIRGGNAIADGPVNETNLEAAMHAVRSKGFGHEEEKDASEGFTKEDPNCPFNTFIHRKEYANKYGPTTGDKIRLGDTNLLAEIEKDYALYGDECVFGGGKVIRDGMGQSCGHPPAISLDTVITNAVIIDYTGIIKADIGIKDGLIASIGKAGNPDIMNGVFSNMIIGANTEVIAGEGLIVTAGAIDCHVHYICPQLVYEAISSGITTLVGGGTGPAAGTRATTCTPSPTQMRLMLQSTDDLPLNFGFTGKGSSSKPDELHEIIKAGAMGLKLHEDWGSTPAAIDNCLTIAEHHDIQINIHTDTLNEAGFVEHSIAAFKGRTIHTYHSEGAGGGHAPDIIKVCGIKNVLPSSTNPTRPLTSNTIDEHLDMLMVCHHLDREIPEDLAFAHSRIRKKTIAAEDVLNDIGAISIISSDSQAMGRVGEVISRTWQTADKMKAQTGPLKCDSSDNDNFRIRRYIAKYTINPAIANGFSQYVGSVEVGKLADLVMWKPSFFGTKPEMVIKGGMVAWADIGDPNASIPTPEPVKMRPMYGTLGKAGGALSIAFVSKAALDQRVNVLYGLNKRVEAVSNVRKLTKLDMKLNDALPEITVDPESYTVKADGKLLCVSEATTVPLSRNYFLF
# Experimental: For this example, a colourless urea reference system is defined by the following mixture: in a conical flask 10 g of synthetic urea is diluted with water to 50 ml, three drops of the acid-base indicator phenolphthalein is added.
# [4] = test system: urease
# [5] = 30 ml methanal (24% by weight) added to urease-contaminated urea system containing the inhibitor
# urease (Canavalia ensiformis, UniProt P07374), sequence (P07374 whole entry, looked up): as above
compound,measurement,setting,value
CC(=NO)C(C)=NO [dimethylglyoxime],formation of urea formaldehyde plastic in spite of urease contamination,[1]; [5],it is possible to form the urea formaldehyde plastic
same,polymerisation of concentrated livestock-produced urea with methanal,[2],can be reproduced
NCCN [ethylenediamine],formation of urea formaldehyde plastic in spite of urease contamination,[1],it is possible to form the urea formaldehyde plastic
same,polymerisation of concentrated livestock-produced urea with methanal,[2],can be reproduced
"copper sulphate, pentahydrate",urease activity in manure system,"[2]; 5 l water and 10 g copper sulphate, pentahydrate below stable floor, 20 pigs, 24 hours collection",remove the urease activity
same,polymerisation of concentrated livestock-produced urea with methanal,[2],the polymerisation proceeded
O=[N+]([O-])[O-].[Ag+] [silver nitrate],colour shift of phenolphthalein into red (ammonia formation by urea hydrolysis),"[3]; 1 g inhibitor added to 10 g urea in 50 ml water, then 1 ml urease (540 units per ml), system also does not begin to smell of ammonia",the colour shift of phenolphthalein does not occur
same,catalytic effect of the urease enzyme on the hydrolysis of urea,[3]; ions present in the urinal system,completely lost
same,formation of urea formaldehyde plastic in spite of urease contamination,[1]; [5],it is possible to form the urea formaldehyde plastic
same,polymerisation of concentrated livestock-produced urea with methanal,[2],can be reproduced
CC(=O)[O-].CC(=O)[O-].[Pb+2] [lead acetate],polymerisation of concentrated livestock-produced urea with methanal,[2],can be reproduced
NC(N)=O [urea],Km,"[4]; pH 5.5, pig manure system",~1000 µM
same,νm,"[4]; pH 5.5, pig manure system",approximately 2×10^−3 mol/dm^3/min
same,Km,"[4]; pH 7, similar manure system",~4000 µM
same,νm,"[4]; pH 7, similar manure system",approximately 11×10^−3 mol/dm^3/min
